Where a name gives a salt, the structure may show the parent alone.
What follows are compounds tested against ATM (Homo sapiens (Human), UniProt Q13315) (assay: ATM in Cell Western Assay (pKAP1 in etoposide-treated MCF-7 cells)). Settings: pKAP1 in etoposide-treated MCF-7 cells.
Type: cell-based
In short: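 After paraformaldehyde fixation and Triton X-100 permeabilization, immunostained plates were read by infrared scanning (ODYSSEY CLx). Compound was given as 10 doses, 3-fold dilutions from a 1 μM final top concentration.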

ATM, sequence (Q13315 whole entry): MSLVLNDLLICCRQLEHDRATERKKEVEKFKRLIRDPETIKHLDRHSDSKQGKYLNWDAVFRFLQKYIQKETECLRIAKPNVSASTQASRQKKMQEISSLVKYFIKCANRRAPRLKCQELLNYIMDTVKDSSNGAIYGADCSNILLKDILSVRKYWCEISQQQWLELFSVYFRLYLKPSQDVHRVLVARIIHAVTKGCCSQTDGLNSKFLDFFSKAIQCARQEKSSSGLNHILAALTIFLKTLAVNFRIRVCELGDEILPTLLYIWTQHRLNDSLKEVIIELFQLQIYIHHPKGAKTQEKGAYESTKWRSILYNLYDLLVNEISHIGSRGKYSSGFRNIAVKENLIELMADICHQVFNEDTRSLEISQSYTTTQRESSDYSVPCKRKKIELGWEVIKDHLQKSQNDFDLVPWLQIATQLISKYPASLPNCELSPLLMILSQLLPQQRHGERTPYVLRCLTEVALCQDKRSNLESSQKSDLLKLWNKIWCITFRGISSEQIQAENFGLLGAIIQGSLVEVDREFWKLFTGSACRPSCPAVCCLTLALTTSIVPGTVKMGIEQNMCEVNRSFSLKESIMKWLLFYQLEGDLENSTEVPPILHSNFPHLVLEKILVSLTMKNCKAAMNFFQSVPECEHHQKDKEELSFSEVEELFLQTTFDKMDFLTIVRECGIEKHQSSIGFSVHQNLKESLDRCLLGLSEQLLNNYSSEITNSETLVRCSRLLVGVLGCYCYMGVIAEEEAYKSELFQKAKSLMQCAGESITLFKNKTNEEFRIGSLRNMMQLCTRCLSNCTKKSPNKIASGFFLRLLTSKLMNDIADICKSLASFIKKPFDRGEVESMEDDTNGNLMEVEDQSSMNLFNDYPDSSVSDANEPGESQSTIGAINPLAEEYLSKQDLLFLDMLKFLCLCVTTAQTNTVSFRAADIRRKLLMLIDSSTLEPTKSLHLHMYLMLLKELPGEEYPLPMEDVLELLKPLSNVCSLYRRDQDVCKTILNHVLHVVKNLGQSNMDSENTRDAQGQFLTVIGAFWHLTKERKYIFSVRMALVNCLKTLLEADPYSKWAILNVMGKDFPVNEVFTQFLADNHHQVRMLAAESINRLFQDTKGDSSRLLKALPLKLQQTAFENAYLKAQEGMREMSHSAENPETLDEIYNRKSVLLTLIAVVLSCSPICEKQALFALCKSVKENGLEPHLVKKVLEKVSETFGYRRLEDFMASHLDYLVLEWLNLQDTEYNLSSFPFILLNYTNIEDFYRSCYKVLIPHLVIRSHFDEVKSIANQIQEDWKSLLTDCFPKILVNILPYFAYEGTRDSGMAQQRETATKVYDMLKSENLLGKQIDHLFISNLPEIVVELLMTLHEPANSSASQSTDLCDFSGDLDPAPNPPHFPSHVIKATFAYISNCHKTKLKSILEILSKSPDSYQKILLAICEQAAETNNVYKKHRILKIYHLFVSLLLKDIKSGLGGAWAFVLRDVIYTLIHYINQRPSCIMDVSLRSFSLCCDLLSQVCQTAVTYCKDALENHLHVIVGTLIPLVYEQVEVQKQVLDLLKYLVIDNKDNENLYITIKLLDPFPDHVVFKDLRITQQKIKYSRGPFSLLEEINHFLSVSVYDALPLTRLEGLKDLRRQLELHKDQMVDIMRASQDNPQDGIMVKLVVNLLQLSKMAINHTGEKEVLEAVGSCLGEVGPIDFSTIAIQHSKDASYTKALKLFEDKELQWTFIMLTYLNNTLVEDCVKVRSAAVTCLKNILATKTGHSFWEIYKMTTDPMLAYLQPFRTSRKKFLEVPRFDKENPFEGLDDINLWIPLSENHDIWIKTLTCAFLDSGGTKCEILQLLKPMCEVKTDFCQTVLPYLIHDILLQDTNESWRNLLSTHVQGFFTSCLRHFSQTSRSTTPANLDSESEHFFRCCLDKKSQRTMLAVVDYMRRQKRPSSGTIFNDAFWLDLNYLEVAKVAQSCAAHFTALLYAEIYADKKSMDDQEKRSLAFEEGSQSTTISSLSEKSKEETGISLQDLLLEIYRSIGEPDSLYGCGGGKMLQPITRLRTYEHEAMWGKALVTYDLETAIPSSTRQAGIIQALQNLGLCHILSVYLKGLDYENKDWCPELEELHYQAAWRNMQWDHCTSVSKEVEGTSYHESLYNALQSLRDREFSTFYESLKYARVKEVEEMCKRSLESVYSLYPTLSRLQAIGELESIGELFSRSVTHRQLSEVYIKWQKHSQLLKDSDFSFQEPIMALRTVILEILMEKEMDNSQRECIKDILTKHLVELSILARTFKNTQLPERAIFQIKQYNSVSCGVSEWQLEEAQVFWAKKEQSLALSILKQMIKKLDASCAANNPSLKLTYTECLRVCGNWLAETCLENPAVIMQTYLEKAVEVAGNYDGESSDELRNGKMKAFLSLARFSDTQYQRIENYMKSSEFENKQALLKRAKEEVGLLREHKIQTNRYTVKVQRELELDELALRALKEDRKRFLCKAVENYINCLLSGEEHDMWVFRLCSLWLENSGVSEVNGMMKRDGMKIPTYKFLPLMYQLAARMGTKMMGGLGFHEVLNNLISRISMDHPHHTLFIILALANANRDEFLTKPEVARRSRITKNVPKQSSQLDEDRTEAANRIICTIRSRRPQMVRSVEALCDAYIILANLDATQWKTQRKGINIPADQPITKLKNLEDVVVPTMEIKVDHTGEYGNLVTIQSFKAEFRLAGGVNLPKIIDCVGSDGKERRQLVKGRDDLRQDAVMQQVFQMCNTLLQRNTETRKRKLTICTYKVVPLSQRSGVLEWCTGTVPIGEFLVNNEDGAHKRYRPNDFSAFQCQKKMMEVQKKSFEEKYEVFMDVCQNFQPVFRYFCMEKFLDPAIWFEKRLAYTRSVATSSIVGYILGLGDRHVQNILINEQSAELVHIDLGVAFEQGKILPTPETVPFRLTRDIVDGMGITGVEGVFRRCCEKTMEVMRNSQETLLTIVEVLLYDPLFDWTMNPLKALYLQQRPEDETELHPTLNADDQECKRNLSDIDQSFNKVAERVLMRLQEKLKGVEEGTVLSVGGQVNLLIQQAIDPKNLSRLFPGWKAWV

Row | SMILES | IC50 [nM]
1 | CCN1C(=O)C2(CCC2)c2c1cnc1ccc(-c3cnc(N4CC(N(C)C)C4)c(NS(=O)(=O)c4ccccc4)c3)cc21 [Example 337, N-(2-(3-(Dimethylamino)azetidin-1-yl)-5-(3′-ethyl-2′-oxo-2′,3′-dihydrospiro[cyclobutane-1,1′-pyrrolo[2,3-c]quinolin]-8′-yl)pyridin-3-yl)benzenesulfonamide] | 1 to 100
2 | CNS(=O)(=O)Nc1cc(-c2cc3c4c(cnc3cc2F)N(C)C(=O)C42CCC2)cnc1N1CC(N(C)C)C1 [Example 340, 8′-{6-[3-(Dimethylamino)azetidin-1-yl]-5-[(methylsulfamoyl)amino]pyridin-3-yl}-7′-fluoro-3′-methyl-2′,3′-dihydrospiro[cyclobutane-1,1′-pyrrolo[2,3-c]quinoline]-2′-one] | 1 to 100
3 | CN1C(=O)C2(CCC2)c2c1cnc1cc(F)c(-c3cnc(N4CC(N(C)C)C4)c(NS(=O)(=O)C(F)F)c3)cc21 [Example 341, N-(2-(3-(Dimethylamino)azetidin-1-yl)-5-(7′-fluoro-3′-methyl-2′-oxo-2′,3′-dihydrospiro[cyclobutane-1,1′-pyrrolo[2,3-c]quinolin]-8′-yl)pyridin-3-yl)-1,1′-difluoromethane-sulfonamide formate] | > 100
4 | CN1C(=O)C2(CCC2)c2c1cnc1cc(F)c(-c3cnc(N4CC(N(C)C)C4)c(NS(=O)(=O)CC#N)c3)cc21 [Example 342, 1-Cyano-N-(2-(3-(dimethylamino)azetidin-1-yl)-5-(7′-fluoro-3′-methyl-2′-oxo-2′,3′-dihydrospiro [cyclobutane-1,1′-pyrrolo [2,3-c]quinolin]-8′-yl)pyridin-3-yl)methanesulfonamide hydrochloride] | > 100
5 | CN1C(=O)C2(CCC2)c2c1cnc1cc(F)c(-c3cnc(N4CC(CN5CCOCC5)C4)c(NS(C)(=O)=O)c3)cc21 [Example 344, N-(5-(7′-Fluoro-3′-methyl-2′-oxo-2′,3′-dihydrospiro[cyclobutane-1,1′-pyrrolo[2,3-c]quinolin]-8′-yl)-2-(3-(morpholinomethyl)azetidin-1-yl)pyridin-3-yl)methanesulfonamideformate] | > 100
6 | CN1CC2(C1)CN(c1ncc(-c3ccc4ncc5c(c4c3)C3(CCC3)C(=O)N5C)cc1NS(C)(=O)=O)C2 [Example 345, N-(5-(3′-Methyl-2′-oxo-2′,3′-dihydrospiro[cyclobutane-1,1′-pyrrolo[2,3-c]quinolin]-8′-yl)-2-(6-methyl-2,6-diazaspiro[3.3]heptan-2-yl)pyridin-3-yl)methanesulfonamide formate] | 1 to 100
7 | CN1C(=O)C2(CCC2)c2c1cnc1ccc(-c3cnc(N4CC5(CNC5)C4)c(NS(C)(=O)=O)c3)cc21 [Example 346, N-(5-(3′-Methyl-2′-oxo-2′,3′-dihydrospiro[cyclobutane-1,1 pyrrole[2,3-c]quinolin]-8′-yl)-2-(2,6-diazaspiro[3.3]heptan-2-yl)pyridin-3-yl) methanesulfonamide formate] | > 100
8 | CN1C(=O)C2(CCC2)c2c1cnc1ccc(-c3cnc(N4CC5(CN(C(=O)OC(C)(C)C)C5)C4)c(NS(C)(=O)=O)c3)cc21 [Example 347, tert-Butyl 6-(5-(3′-methyl-2′-oxo-2′,3′-dihydrospiro [cyclobutane-1,1′-pyrrolo[2,3-c]quinolin]-8′-yl)-3-(methylsulfonamido)pyridin-2-yl)-2,6-diazaspiro[3.3] heptane-2-carboxylate] | > 100
9 | CN1C(=O)C2(CCC2)c2c1cnc1ccc(-c3cnc(N4CC5CN(C(=O)OC(C)(C)C)CC5C4)c(NS(C)(=O)=O)c3)cc21 (stereo not drawn) [Example 348, tert-Butyl 5-(5-(3′-methyl-2′-oxo-2′,3′-dihydrospiro [cyclobutane-1,1′-pyrrolo[2,3-c]quinolin]-8′-yl)-3-(methylsulfonamido)pyridin-2-yl) hexahydropyrrolo [3,4-c] pyrrole-2(1H)-carboxylate] | > 100
10 | CN1C(=O)C2(CCC2)c2c1cnc1ccc(-c3cnc(N4CC5CNCC5C4)c(NS(C)(=O)=O)c3)cc21 (stereo not drawn) [Example 349, N-(2-(Hexahydropyrrolo[3,4-c]pyrrol-2(1H)-yl)-5-(3′-methyl-2′-oxo-2′,3′-dihydrospiro [cyclobutane-1,1′-pyrrolo[2,3-c]quinolin]-8′-yl)pyridin-3-yl) methanesulfonamide formate] | 1 to 100
11 | CN1C(=O)C2(CCC2)c2c1cnc1ccc(-c3cnc(N4CCC(C)(N5CCCCC5)CC4)c(NS(C)(=O)=O)c3)cc21 [Example 354, N-(5-(3′-Methyl-2′-oxo-2′,3′-dihydrospiro[cyclobutane-1,1′-pyrrolo[2,3-c]quinolin]-8′-yl)-2-(4′-methyl-[l,4′-bipiperidin]-1′-yl)pyridin-3-yl)methanesulfonamide] | > 100
12 | CN1C(=O)C2(CCC2)c2c1cnc1ccc(-c3cnc(N4CC5CC(C4)N5C(=O)OC(C)(C)C)c(NS(C)(=O)=O)c3)cc21 [Example 359, tert-Butyl 3-(5-(3′-methyl-2′-oxo-2′,3′-dihydrospiro [cyclobutane-1,1′-pyrrolo[2,3-c]quinolin]-8′-yl)-3-(methylsulfonamido)pyridin-2-yl)-3,6-diazabicydo[3.1.1] heptane-6-carboxylate] | > 100
13 | CN1C(=O)C2(CCC2)c2c1cnc1ccc(-c3cnc(N4CC5CC(C4)N5)c(NS(C)(=O)=O)c3)cc21 [Example 360, N-(2-(3,6-Diazabicyclo[3.1.1]heptan-3-yl)-5-(3′-methyl-2′-oxo-2′,3′-dihydrospiro[cyclobutane-1,1′-pyrrolo[2,3-c]quinolin]-8′-yl)pyridin-3-yl) methanesulfonamide formate] | > 100
14 | CN1C(=O)C2(CCC2)c2c1cnc1ccc(-c3cnc(N4CC5CC(C4)N5C)c(NS(C)(=O)=O)c3)cc21 [Example 361, N-(5-(3′-Methyl-2′-oxo-2′,3′-dihydrospiro[cyclobutane-1,1′-pyrrolo[2,3-c]quinolin]-8′-yl)-2-(6-methyl-3,6-diazabicyclo[3.1.1]heptan-3-yl)pyridin-3-yl)methanesulfonamide formate] | > 100
15 | CN(C)CCCN(C)c1ncc(-c2ccc3ncc4c(c3c2)C2(CCC2)C(=O)N4C)cc1NS(C)(=O)=O [Example 362, N-(2-((3-(Dimethylamino)propyl)(methyl)amino)-5-(3′-methyl-2′-oxo-2′,3′-dihydrospiro[cyclobutane-1,1′-pyrrolo[2,3-c]quinolin]-8′-yl)pyridin-3-yl)methanesulfonamide hydrochloride] | 1 to 100
16 | CN(C)CCN(C)c1ncc(-c2cc3c4c(cnc3cc2F)N(C)C(=O)C42CCC2)cc1NS(C)(=O)=O [Example 363, N-(2-((2-(Dimethylamino)ethyl)(methyl)amino)-5-(7′-fluoro-3′-methyl-2′-oxo-2′,3′-dihydrospiro[cyclobutane-1,1′-pyrrolo[2,3-c]quinolin]-8′-yl)pyridin-3-yl)methanesulfonamide hydrochloride] | > 100
17 | CN(C)c1ncc(-c2cc3c4c(cnc3cc2F)N(C)C(=O)C42CCC2)cn1 [Example 364, 8′-(2-(Dimethylamino)pyrimidin-5-yl)-7′-fluoro-3′-methylspiro[cyclobutane-1,1′-pyrrolo[2,3-c]quinolin]-2′(3′-H)-one] | > 100
18 | CC(C)NCCOc1ncc(-c2cc3c4c(cnc3cc2F)N(C)C(=O)C42CCC2)cc1NS(=O)(=O)C(F)F [Example 368, 1,1-Difluoro-N-(5-(7′-fluoro-3′-methyl-2′-oxo-2′,3′-dihydrospiro[cyclobutane-1,1′-pyrrolo[2,3-c]quinolin]-8′-yl)-2-(2-(isopropylamino)ethoxy)pyridin-3-yl)methanesulfonamide] | > 100
19 | CC(C)NCCOc1ncc(-c2cc3c4c(cnc3cc2F)N(C)C(=O)C42CCC2)cc1NS(=O)(=O)N1CC(C#N)C1 [Example 372, 3-Cyano-N-(5-(7′-fluoro-3′-methyl-2′-oxo-2′,3′-dihydrospiro[cyclobutane-1,1′-pyrrolo[2,3-c]quinolin]-8′-yl)-2-(2-(isopropylamino)ethoxy)pyridin-3-yl)azetidine-1-sulfonamide] | > 100
20 | CC(C)NCCOc1ncc(-c2cc3c4c(cnc3cc2F)N(C)C(=O)C42CCC2)cc1NS(=O)(=O)CC#N [Example 374, 1-Cyano-N′-(5-(7′-fluoro-3′-methyl-2′-oxo-2′,3′-dihydrospiro[cyclobutane-1,1′-pyrrolo[2,3-c]quinolin]-8′-yl)-2-(2-(isopropylamino)ethoxy)pyridin-3-yl) methanesulfonamide hydrochloride] | 1 to 100
21 | CN1C(=O)C2(CCC2)c2c1cnc1cc(F)c(-c3cnc(OCCNC4CC4)c(NS(C)(=O)=O)c3)cc21 [Example 376, N-(2-(2-(Cyclopropylamino)ethoxy)-5-(7′-fluoro-3′-methyl-2′-oxo-2′,3′-dihydrospiro[cyclobutane-1,1′-pyrrolo[2,3-c]quinolin]-8′-yl)pyridin-3-yl)methanesulfonamide hydrochloride] | 1 to 100
22 | CN1C(=O)C2(CCC2)c2c1cnc1cc(F)c(-c3cnc(OCCNC4CCC4)c(NS(C)(=O)=O)c3)cc21 [Example 377, N-(2-(2-(Cyclobutylamino)ethoxy)-5-(7′-fluoro-3′-methyl-2′-oxo-2′,3′-dihydrospiro[cyclobutane-1,1′-pyrrolo[2,3-c]quinolin]-8′-yl)pyridin-3-yl)methanesulfonamide] | > 100
23 | CN1C(=O)C2(CCC2)c2c1cnc1cc(F)c(-c3cnc(OCCNCC(F)(F)F)c(NS(C)(=O)=O)c3)cc21 [Example 378, N-(5-(7′-Fluoro-3′-methyl-2′-oxo-2′,3′-dihydrospiro [cyclobutane-1,1′-pyrrolo[2.3-c]quinolin]-8′-yl)-2-(2-((2,2,2-trifluoroethyl)amino)ethoxy)pyridin-3-yl) methanesulfonamide hydrochloride] | > 100
24 | CN1C(=O)C2(CCC2)c2c1cnc1cc(F)c(-c3cnc(OCCNCC(F)F)c(NS(C)(=O)=O)c3)cc21 [Example 379, N-(2-(2-((2,2-Difluoroethyl)amino)ethoxy)-5-(7fluoro-3′-methyl-2′-oxo-2′,3′-dihydrospiro[cyclobutane-1,1′-pyrrole[2,3-c]quinolin]-8′-yl)pyridin-3-yl) methanesulfonamide] | > 100
